`CC(C)Oc1ccc(NC(=N)c2cccs2)cc1CN1CCCC1` [Example 21, N-[4-Isopropoxy-3-(1-pyrrolidinylmethyl)phenyl]-2-thiophenecarboximidamide] showed a melting point of 138 to 140 °C.

Reference: patent US20020137736A1, “Novel compounds” (priority 1999, published 2002)
